Experimental data from the supplement of paper PMC10307832.

Legend:
Test in all cases: relative viability (nuclei count vs DMSO), 5 days (fraction); higher = more cells survive
IPA-3 + Trametinib = compound: C1=CC=C2C(=C1)C=CC(=C2SSC3=C(C=CC4=CC=CC=C43)O)O [IPA-3] + CC(=O)Nc1cccc(-n2c(=O)n(C3CC3)c(=O)c3c(Nc4ccc(I)cc4F)n(C)c(=O)c(C)c32)c1 [Trametinib] (partner 0.02 µM)
Outline: (§1)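 Lung cancer cell lines were pin-tool dosed in 1536-well plates on the day after seeding, with either a lone drug or a fixed anchor-drug dose plus five library-drug doses (not always all listed) in √10 steps. Nuclei were counted on 4× images after 5 days. Relative viability is the ratio of treated-well to vehicle-well nuclei counts, with each value a median of duplicate plates.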

IPA-3 + OSI-027 = compound: C1=CC=C2C(=C1)C=CC(=C2SSC3=C(C=CC4=CC=CC=C43)O)O [IPA-3] + COc1cccc2cc(-c3nc([C@H]4CC[C@H](C(=O)O)CC4)n4ncnc(N)c34)[nH]c12 [OSI-027] (partner 0.5 µM)
Outline: as §1

RAF265 + Linsitinib = compound: Cn1c(Nc2ccc(C(F)(F)F)cc2)nc2cc(Oc3ccnc(-c4ncc(C(F)(F)F)[nH]4)c3)ccc21 [RAF265] + C[C@]1(O)C[C@@H](c2nc(-c3ccc4ccc(-c5ccccc5)nc4c3)c3c(N)nccn32)C1 [Linsitinib] (partner 1 µM)
Outline: as §1

RAF265 + Tozasertib = compound: Cn1c(Nc2ccc(C(F)(F)F)cc2)nc2cc(Oc3ccnc(-c4ncc(C(F)(F)F)[nH]4)c3)ccc21 [RAF265] + Cc1cc(Nc2cc(N3CCN(C)CC3)nc(Sc3ccc(NC(=O)C4CC4)cc3)n2)n[nH]1 [Tozasertib] (partner 0.1 µM)
Outline: as §1

Row | Cell Line | relative viability (IPA-3 + Trametinib; first compound 0.2 µM) | relative viability (IPA-3 + Trametinib; first compound 0.6325 µM) | relative viability (IPA-3 + Trametinib; first compound 2 µM) | relative viability (IPA-3 + Trametinib; first compound 6.325 µM) | relative viability (IPA-3 + Trametinib; first compound 20 µM) | relative viability (IPA-3 + OSI-027; first compound 0.2 µM) | relative viability (IPA-3 + OSI-027; first compound 0.6325 µM) | relative viability (IPA-3 + OSI-027; first compound 2 µM) | relative viability (IPA-3 + OSI-027; first compound 6.325 µM) | relative viability (IPA-3 + OSI-027; first compound 20 µM) | relative viability (RAF265 + Linsitinib; first compound 0.01 µM) | relative viability (RAF265 + Linsitinib; first compound 0.03162 µM) | relative viability (RAF265 + Linsitinib; first compound 0.1 µM) | relative viability (RAF265 + Linsitinib; first compound 0.3162 µM) | relative viability (RAF265 + Linsitinib; first compound 1 µM) | relative viability (RAF265 + Tozasertib; first compound 0.01 µM) | relative viability (RAF265 + Tozasertib; first compound 0.03162 µM) | relative viability (RAF265 + Tozasertib; first compound 0.1 µM) | relative viability (RAF265 + Tozasertib; first compound 0.3162 µM) | relative viability (RAF265 + Tozasertib; first compound 1 µM)
1 | NCI-H2228 | 0.768 | 0.405 | 0.365 | 0.634 | 0.379 | 0.991 | 0.476 | 0.62 | 0.559 | 0.435 | 0.628 | 0.698 | 0.409 | 0.436 | 0.327 | 0.329 | 0.235 | 0.334 | 0.211 | 0.131
2 | NCI-H2347 | 0.278 | 0.276 | 0.286 | 0.268 | 0.281 | 0.379 | 0.379 | 0.388 | 0.351 | 0.398 | 1.2 | 0.923 | 0.924 | 0.744 | 0.544 | 0.653 | 0.507 | 0.809 | 0.436 | 0.325
3 | NCI-H2405 | 0.683 | 0.639 | 0.511 | 0.628 | 0.81 | 0.651 | 0.644 | 0.669 | 0.691 | 0.666 | 0.993 | 0.884 | 1.03 | 0.852 | 0.378 | 0.798 | 0.736 | 0.876 | 0.853 | 0.458
4 | NCI-H3122 | 0.294 | 0.227 | 0.262 | 0.255 | 0.216 | 1.13 | 0.951 | 0.948 | 1.11 | 0.896 | 1.02 | 1.2 | 0.947 | 1.02 | 0.841 | 0.362 | 0.492 | 0.424 |  | 0.283
5 | PC-3 [JPC-3] | 0.785 | 0.713 | 0.744 | 0.705 | 0.699 | 0.8 | 0.774 | 0.76 | 0.655 | 0.735 | 1.03 | 0.911 | 1.04 | 0.416 | 0.722 | 0.889 | 0.868 | 0.985 |  | 0.518
6 | PC-14 | 1.23 | 0.654 | 0.699 | 0.634 | 0.918 | 1.54 | 0.778 | 0.749 | 0.766 | 1.17 | 1.02 | 0.968 | 1.02 |  | 0.788 | 0.629 | 0.555 | 0.655 |  | 0.542
7 | RERF-LC-KJ | 1.01 | 0.877 | 0.84 | 0.872 | 0.891 | 0.668 | 0.563 | 0.58 | 0.554 | 0.619 | 0.915 | 0.835 | 0.95 | 0.859 | 0.636 | 0.54 | 0.482 | 0.507 | 0.39 | 0.386
8 | SK-LU-1 | 0.585 | 0.474 | 0.506 | 0.467 | 0.571 | 0.361 | 0.347 | 0.341 | 0.345 | 0.354 | 1.14 | 0.7 | 0.687 | 0.523 | 0.428 | 0.333 | 0.273 | 0.296 | 0.278 | 0.204
9 | SK-MES-1 | 0.568 | 0.528 | 0.618 | 0.639 | 0.659 | 0.722 | 0.581 | 0.635 | 0.521 | 0.423 | 1.14 | 0.926 | 0.947 | 0.562 | 0.249 | 0.853 | 0.603 | 0.399 | 0.348 | 0.275
10 | SW 1573 | 0.67 | 0.546 | 0.46 | 0.532 | 0.271 | 0.867 | 0.385 | 0.528 | 0.634 | 0.183 | 0.767 | 0.744 | 0.796 | 0.612 | 0.508 | 0.168 | 0.24 | 0.171 | 0.183 | 0.139
